Reference: PubChem BioAssay (NCI)
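All cell lines were grown in 96-well plates and treated with compound for 48 hours. TGI is the concentration that stops growth completely.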

system: SK-MEL-2 melanoma; assay: inhibition of tumour cell growth, NCI panel, 48 h

`CCCCN(CCCC)CC(O)c1cc(-c2ccc(C(F)(F)F)cc2)nc(-c2ccc(C(F)(F)F)cc2)c1` (stereo not given) and `O=C(O)c1ccc(Nc2c3ccccc3nc3ccccc23)cc1` cannot be ordered by TGI: greater than 100 µM for the first, greater than 100 µM for the second.

Going from `CC(C)(C)[Si](OC1CC(n2cnc3c(N)ncnc32)OC1CO)(c1ccccc1)c1ccccc1` (stereo not given) to `CCOc1cc2c(OCc3ccccc3)cc3c4cc(OC)c(OC)cc4c[n+](C)c3c2cc1OC`, the TGI falls from 36.1 µM to 2.59 µM (14-fold).

Going from `NS(=O)(=O)c1ccc(N=Nc2nc3[nH]c(=O)[nH]c(=O)c3[nH]2)cc1` to `COc1ccc(C2COc3cc(OC(C)=O)c(OC(C)=O)cc3C2)cc1` (stereo not given), the TGI falls from greater than 100 µM to 58.7 µM.

Going from `CC1=CC(C)C/C=C/C2C3OC3(C)C(C)C3C(Cc4c[nH]c5ccccc45)NC(=O)C23C(=O)C=CC(=O)C1O` (stereo not given) to `C/C(=N\NC(=S)N1CCCCC1)c1nc2ncccc2[nH]1`, the TGI rises from 34.6 µM to greater than 100 µM.

`Cc1cc(C)n(C(=C(C(Cl)=C(Cl)Cl)[N+](=O)[O-])n2nc(C)cc2C)n1` was tested, and the TGI was 4.18 µM.

system: SK-MEL-28 melanoma; assay: inhibition of tumour cell growth, NCI panel, 48 h

First: c1nc(OCC2CCCCC2)c2[nH]cnc2n1
Second: C/C(=N\NC(=S)N1CCCCC1)c1nc2ncccc2[nH]1
The TGI of the first is higher: greater than 100 µM for the first, 37.7 µM for the second.

Compared with `Oc1cn(-c2ccc(Cl)cc2)nc1-c1nnc(-c2ccccc2)o1`, `O=C(O)c1ccc(Nc2c3ccccc3nc3ccccc23)cc1` is higher in TGI: 53.1 µM for the first, greater than 100 µM for the second.

Going from `COc1ccc(N2C(=O)/C(=C(\C)c3cc4ccccc4oc3=O)N=C2c2cc([N+](=O)[O-])ccc2Cl)cc1` to `COc1ccc(C2COc3cc(OC(C)=O)c(OC(C)=O)cc3C2)cc1` (stereo not given), the TGI falls from greater than 100 µM to 46.9 µM.

Compared with `O=C(O)CC(CC(=O)O)C(=O)O`, `Cc1cc(C)n(C(=C(C(Cl)=C(Cl)Cl)[N+](=O)[O-])n2nc(C)cc2C)n1` is lower in TGI: greater than 100 µM for the first, 19.7 µM for the second.

`CC(=O)N(C)c1ccc(Nc2cc(C)[nH]c3ccc4ncnc4c23)cc1` and `CC(C)(C)[Si](OC1CC(n2cnc3c(N)ncnc32)OC1CO)(c1ccccc1)c1ccccc1` (stereo not given) are within 1.5-fold of each other in TGI: 36.5 µM for the first, 41.1 µM for the second.

First: FC(F)(F)c1ccc(N=C/C=C(/Nc2ccc(C(F)(F)F)cc2)c2ccc(Cl)cc2)cc1
Second: CCCCN(CCCC)CC(O)c1cc(-c2ccc(C(F)(F)F)cc2)nc(-c2ccc(C(F)(F)F)cc2)c1 (stereo not given)
The TGI of the first is lower: 33.4 µM for the first, greater than 100 µM for the second.

Going from `NS(=O)(=O)c1ccc(N=Nc2nc3[nH]c(=O)[nH]c(=O)c3[nH]2)cc1` to `CC1=CC(C)C/C=C/C2C3OC3(C)C(C)C3C(Cc4c[nH]c5ccccc45)NC(=O)C23C(=O)C=CC(=O)C1O` (stereo not given), the TGI falls from greater than 100 µM to 38.2 µM.

system: SR leukemia; assay: inhibition of tumour cell growth, NCI panel, 48 h

Compared with `Oc1cn(-c2ccc(Cl)cc2)nc1-c1nnc(-c2ccccc2)o1`, `COc1ccc(N2C(=O)/C(=C(\C)c3cc4ccccc4oc3=O)N=C2c2cc([N+](=O)[O-])ccc2Cl)cc1` is higher in TGI: 20.8 µM for the first, greater than 100 µM for the second.

`O=C(O)CC(CC(=O)O)C(=O)O` and `CCCCN(CCCC)CC(O)c1cc(-c2ccc(C(F)(F)F)cc2)nc(-c2ccc(C(F)(F)F)cc2)c1` (stereo not given) cannot be ordered by TGI: greater than 100 µM for the first, greater than 100 µM for the second.

First: CC(=O)N(C)c1ccc(Nc2cc(C)[nH]c3ccc4ncnc4c23)cc1
Second: CC(C)(C)[Si](OC1CC(n2cnc3c(N)ncnc32)OC1CO)(c1ccccc1)c1ccccc1 (stereo not given)
The TGI of the first is 1.9-fold lower: 23 µM for the first, 43.8 µM for the second.

`FC(F)(F)c1ccc(N=C/C=C(/Nc2ccc(C(F)(F)F)cc2)c2ccc(Cl)cc2)cc1` and `NS(=O)(=O)c1ccc(N=Nc2nc3[nH]c(=O)[nH]c(=O)c3[nH]2)cc1` cannot be ordered by TGI: greater than 100 µM for the first, greater than 100 µM for the second.

For `C/C(=N\NC(=S)N1CCCCC1)c1nc2ncccc2[nH]1`, the TGI was 28.6 µM.

system: T-47D breast; assay: inhibition of tumour cell growth, NCI panel, 48 h

Going from `Oc1cn(-c2ccc(Cl)cc2)nc1-c1nnc(-c2ccccc2)o1` to `FC(F)(F)c1ccc(N=C/C=C(/Nc2ccc(C(F)(F)F)cc2)c2ccc(Cl)cc2)cc1`, the TGI falls from greater than 92.7 µM to 39.9 µM.

First: O=C(O)CC(CC(=O)O)C(=O)O
Second: Cc1cc(C)n(C(=C(C(Cl)=C(Cl)Cl)[N+](=O)[O-])n2nc(C)cc2C)n1
The TGI of the first is higher: greater than 100 µM for the first, 23.1 µM for the second.

Going from `CC(=O)N(C)c1ccc(Nc2cc(C)[nH]c3ccc4ncnc4c23)cc1` to `NS(=O)(=O)c1ccc(N=Nc2nc3[nH]c(=O)[nH]c(=O)c3[nH]2)cc1`, the TGI rises from 39.6 µM to greater than 100 µM.

`CCCCN(CCCC)CC(O)c1cc(-c2ccc(C(F)(F)F)cc2)nc(-c2ccc(C(F)(F)F)cc2)c1` (stereo not given) and `CCOc1cc2c(OCc3ccccc3)cc3c4cc(OC)c(OC)cc4c[n+](C)c3c2cc1OC` cannot be ordered by TGI: greater than 100 µM for the first, greater than 100 µM for the second.

Compared with `CC1=CC(C)C/C=C/C2C3OC3(C)C(C)C3C(Cc4c[nH]c5ccccc45)NC(=O)C23C(=O)C=CC(=O)C1O` (stereo not given), `C/C(=N\NC(=S)N1CCCCC1)c1nc2ncccc2[nH]1` is 11-fold higher in TGI: 3.76 µM for the first, 42.4 µM for the second.

system: UACC-62 melanoma; assay: inhibition of tumour cell growth, NCI panel, 48 h

First: c1nc(OCC2CCCCC2)c2[nH]cnc2n1
Second: C/C(=N\NC(=S)N1CCCCC1)c1nc2ncccc2[nH]1
The TGI of the first is higher: greater than 100 µM for the first, 69.7 µM for the second.

`Oc1cn(-c2ccc(Cl)cc2)nc1-c1nnc(-c2ccccc2)o1` and `O=C(O)c1ccc(Nc2c3ccccc3nc3ccccc23)cc1` cannot be ordered by TGI: greater than 51.1 µM for the first, greater than 100 µM for the second.

First: COc1ccc(N2C(=O)/C(=C(\C)c3cc4ccccc4oc3=O)N=C2c2cc([N+](=O)[O-])ccc2Cl)cc1
Second: COc1ccc(C2COc3cc(OC(C)=O)c(OC(C)=O)cc3C2)cc1 (stereo not given)
The TGI of the first is higher: greater than 100 µM for the first, 43.5 µM for the second.

First: O=C(O)CC(CC(=O)O)C(=O)O
Second: Cc1cc(C)n(C(=C(C(Cl)=C(Cl)Cl)[N+](=O)[O-])n2nc(C)cc2C)n1
The TGI of the first is higher: greater than 100 µM for the first, 14.9 µM for the second.

Compared with `CC(=O)N(C)c1ccc(Nc2cc(C)[nH]c3ccc4ncnc4c23)cc1`, `FC(F)(F)c1ccc(N=C/C=C(/Nc2ccc(C(F)(F)F)cc2)c2ccc(Cl)cc2)cc1` is 2-fold lower in TGI: 31.8 µM for the first, 15.6 µM for the second.

Going from `CCCCN(CCCC)CC(O)c1cc(-c2ccc(C(F)(F)F)cc2)nc(-c2ccc(C(F)(F)F)cc2)c1` (stereo not given) to `CC1=CC(C)C/C=C/C2C3OC3(C)C(C)C3C(Cc4c[nH]c5ccccc45)NC(=O)C23C(=O)C=CC(=O)C1O` (stereo not given), the TGI falls from greater than 100 µM to 29.1 µM.

In the case of `NS(=O)(=O)c1ccc(N=Nc2nc3[nH]c(=O)[nH]c(=O)c3[nH]2)cc1`, the TGI is reported as greater than 100 µM.
